Source: patent publication US4303660A, “Pyrazolo[1,5-c]quinazoline derivatives and analgesic compositions containing them” (priority 1979, dated 1981)
Read-outs that look alike come from different tables or passages of the source.

Columns and labels:
[1] = test system: gastric acid secretion; assay type: in vivo, rats; conditions: for Inhibition of gastric acid secretion, percentage: rats
Source text: The influence of the compounds of the invention on the gastric acid secretion was studied on rats weighing 170 to 260 g according to Shay [Gastroenterology, 5, 43 (1945)].

[2] = in vivo; conditions: printed under the reference substance in Table III
[3] = test system: small intestine; assay: Antiperistaltic effect (carbon suspension, small intestine); assay type: in vivo, mice; conditions: for ED50: Mus musculus, read-out: ED50 p.o.
Experimental: The antiperistaltic effect of the compounds of the invention was examined on groups of mice consisting of 10 animals. Each dosis of the compound to be tested was administered to one group, orally, 60 minutes prior to the administration of a 10 percent carbon suspension. 20 minutes after the administration of the carbon suspension, the animals were sacrificed and the length of the entire small intestine as well as that of the small intestine filled with carbon were determined. The reference substance used was papaverine [1-(3,4-dimethoxybenzyl)-6,7-dimethoxyisoquinoline].

[4] = Acute toxicity; conditions: mouse, in vivo; oral; mice weighing 18 to 22 g
Experimental: The acute toxicity of the pyrazolo[1,5-c]quinazoline derivatives of the general formula I were determined on mice weighing 18 to 22 g. The compounds were administered orally.

[5] = test system: acetic acid writhing; assay: Acetic acid writhing test (analgesic activity); conditions: for ED50: Mus musculus, read-out: ED50 p.o.
Experimental: The analgesic activity was studied by means of the acetic acid writhing test on mice. After the intraperitoneal administration of 0.4 ml of 0.5 percent acetic acid, the writhing responses were counted between the 5 and 10 minutes. The writhing number was calculated as the percentage of the control value. The compounds tested were orally administered to the animals 1 hour prior to the treatment with acetic acid. […] Paracetamole [p-hydroxyacetanilide] and phenylbutazon [4-butyl-1,2-diphenylpyrazolidine-3,5-dione] were used as reference substance.

[6] = antiperistaltic effect, oral, 60 minutes prior to 10 percent carbon suspension, mice

For `CCCN(CCC)C(=O)C(CCC(=O)O)NC(=O)c1ccccc1` (racemic) [proglumide, D,L-4-benzamido-N,N-dipropylglutaramic acid, reference compound], the “Inhibition of gastric acid secretion, percentage” value (from here on “Inhibition … percentage”) ([1]; 200 mg/kg p.o.) was “about 20 percentage”, the Therapeutic index ([1]; gastric acid secretion, p.o.) was 11.4 and the LD50 [2] was 2780 mg/kg.

Compound `O=[N+]([O-])c1cnn2cnc3ccccc3c12` [Example 1, 1-Nitropyrazolo[1,5-c]quinazoline] has an ED50 [3, 6] of 18 mg/kg, a Therapeutic index ([3]; mouse, in vivo, po) of 111 and an LD50 [4] of 2000 mg/kg. The ED50 ([5]; po) was 50 mg/kg and the Therapeutic index ([5]; mouse, in vivo, po) was 40.

`Cc1nc2ccccc2c2c([N+](=O)[O-])cnn12` [Example 3, 1-Nitro-5-methylpyrazolo[1,5-c]quinazoline] showed an ED50 [3, 6] of 400 mg/kg, a Therapeutic index ([3]; mouse, in vivo, po) of 5 and an LD50 [4] of 2000 mg/kg.

With `CC(=O)Nc1cnn2cnc3ccccc3c12` [Example 5, 1-Acetaminopyrazolo[1,5-c]quinazoline] the ED50 [3, 6] was 400 mg/kg, the Therapeutic index ([3]; mouse, in vivo, po) was 5 and the LD50 [4] was 2000 mg/kg. The “Inhibition … percentage” value ([1]; 70 mg/kg p.o.) was “about 50 percentage”, the “Inhibition … percentage” value ([1]; 100 mg/kg p.o.) was 93 percentage and the Therapeutic index ([1]; rat, in vivo, po) was 28.6.

With `CC1(C)Nc2ccccc2-c2c([N+](=O)[O-])cnn21` [Example 9, 1-Nitro-5,5-dimethyl-5,6-dihydropyrazolo[1,5-c]quinazoline] the ED50 [3, 6] was 400 mg/kg, the Therapeutic index ([3]; mouse, in vivo, po) was 5 and the LD50 [4] was 2000 mg/kg.

`CC(=O)N1c2ccccc2-c2c([N+](=O)[O-])cnn2C1C` (stereo not drawn) [Example 27, 1-Nitro-5-methyl-6-acetyl-5,6-dihydropyrazolo[1,5-c]quinazoline] gave an ED50 [3, 6] of 50 mg/kg, a Therapeutic index ([3]; mouse, in vivo, po) of 40 and an LD50 [4] of 2000 mg/kg. For the same compound, the “Inhibition … percentage” value ([1]; 50 mg/kg p.o.) was 33 percentage, the “Inhibition … percentage” value ([1]; 62 mg/kg p.o.) was “about 50 percentage” and the “Inhibition … percentage” value ([1]; 100 mg/kg p.o.) was 82 percentage. The Therapeutic index ([1]; rat, in vivo, po) was 32.3.

For `CC(=O)N1c2ccccc2-c2c([N+](=O)[O-])cnn2C1(C)C` [Example 31, 1-Nitro-5,5-dimethyl-6-acetyl-5,6-dihydropyrazolo[1,5-c]quinazoline], the ED50 [3, 6] was 50 mg/kg, the Therapeutic index ([3]; mouse, in vivo, po) was 40 and the LD50 [4] was 2000 mg/kg.

For `CC(=O)Nc1cnn2c1-c1ccccc1NC2(C)C` [Example 33, 1-Acetamino-5,5-dimethyl-5,6-dihydropyrazolo[1,5-c]quinazoline], the ED50 [3, 6] was 45 mg/kg, the Therapeutic index ([3]; mouse, in vivo, po) was 45 and the LD50 [4] was 2000 mg/kg.

`CC(=O)Nc1cnn2c1-c1ccccc1N(C(C)=O)C2(C)C` [Example 34] gave an ED50 ([3]; po) of 60 mg/kg, a Therapeutic index ([3]; antiperistaltic effect, p.o.) of 33 and an LD50 [4] of 2000 mg/kg. It also gave an ED50 ([5]; po) of 25 mg/kg and a Therapeutic index ([5]; analgesic activity test, p.o.) of 80.

Work on `CC(=O)Nc1cnn2c1-c1ccccc1N(C(C)=O)C2C` (stereo not drawn) [Example 35, 1-Acetamino-5-methyl-6-acetyl-5,6-dihydropyrazolo[1,5-c]quinazoline] yielded an ED50 [3, 6] of 145 mg/kg, a Therapeutic index ([3]; mouse, in vivo, po) of 14 and an LD50 [4] of 2000 mg/kg.

Compound `CC(=O)Nc1cnn2c(C)nc3ccccc3c12` [Example 36, 1-Acetamino-5-methylpyrazolo[1,5-c]quinazoline] has an ED50 [3, 6] of 360 mg/kg, a Therapeutic index ([3]; mouse, in vivo, po) of 5 and an LD50 [4] of 1800 mg/kg. For the same compound, the “Inhibition … percentage” value ([1]; 50 mg/kg p.o.) was 30 percentage, the “Inhibition … percentage” value ([1]; 65 mg/kg p.o.) was “about 50 percentage” and the “Inhibition … percentage” value ([1]; 100 mg/kg p.o.) was 73 percentage. It also gave a Therapeutic index ([1]; rat, in vivo, po) of 27.7.

In the case of `CN/C(=N/CCSCc1nc[nH]c1C)NC#N` [cimetidine, 1-methyl-3-[2-(5-methylimidazol-4-yl-methylthio)ethyl]guanidine-2-carbonitrile, reference compound], the “Inhibition … percentage” value ([1]; 50 mg/kg p.o.) is reported as 45 percentage, the Therapeutic index ([1]; rat, in vivo, po) is reported as 9.4 and the LD50 [2] is reported as 470 mg/kg.

With `COc1ccc(Cc2nccc3cc(OC)c(OC)cc23)cc1OC` [papaverine, 1-(3,4-dimethoxybenzyl)-6,7-dimethoxyisoquinoline, reference compound] the ED50 ([3]; po) was 180 mg/kg and the Therapeutic index ([3]; antiperistaltic effect, p.o.) was 3.4.

In the case of `CC(=O)Nc1ccc(O)cc1` [paracetamole, p-hydroxyacetanilide, reference compound], the ED50 ([5]; po) is reported as 180 mg/kg and the Therapeutic index ([5]; analgesic activity test, p.o.) is reported as 2,8.

For `CCCCC1C(=O)N(c2ccccc2)N(c2ccccc2)C1=O` [phenylbutazon, 4-butyl-1,2-diphenylpyrazolidine-3,5-dione, reference compound], the ED50 ([5]; po) was 60 mg/kg and the Therapeutic index ([5]; mouse, in vivo, po) was 16,6.
